Consider one substance from patent US12345644B2, “System and method for assessing cellular metabolic activity” (Trustees of Tufts College, priority 2016, dated 2025).

This test concerns HL-1 cardiomyocytes. To be noted: HL-1 cells, CCCP 50 μM, imaged right after exposure, versus vehicle control, n=4 cultures/group.

Protocol: Mouse HL-1 cardiomyocytes are maintained in Claycomb media (Sigma-Alrich). Images are taken right after exposure to low-dose CCCP (50 μM) or vehicle. We prepared 4 dishes for each group, and acquired a total of 16 fields per group (4 fields per dish).
TPEF Data Acquisition: For TPEF imaging, cell cultures are placed in home-made micro-incubator system, which maintained 37° C. and 5% CO2 within a humidified environment throughout the imaging session. […] Images are obtained using a custom-built microscope with a 40×water dipping objective (NA 1.1) or a 25×water dipping objective (NA 0.95, for in vivo imaging only) equipped with a tunable (710-920 nm) Ti: sapphire laser (Mai Tai; Spectra Physics; Mountain View, Calif.). Emission events are registered by a photomultiplier tube (PMT) detector attached to a commercial time-correlated single photon counting (TCSPC) electronics module. To isolate NADH fluorescence, a 460(±20) nm emission filter (Chroma, ET460/40M-2P), corresponding to the NADH emission peak, was placed before the detector. NADH fluorescence images are acquired from this 460 nm detector using 755 nm excitation. FAD fluorescence was isolated using 525(±25) nm emission filter (Chroma, ET525/50M-2P) and 860 nm excitation. […] The laser power and PMT gain are recorded for each image and used to normalize fluorescence intensity.
Optical Redox Ratio Calculation: To process the optical redox ratio, firstly the fluorescence intensity of either NADH or FAD at each pixel was taken as the total photon counts detected during the integration time without spatial binning. For cell cultures, the cytoplasm of cells was selected based on the intensity threshold (FIG. 2F), while the segmentation of cell cytoplasm and lipid areas for BAT tissues was extracted by a combination of fluorescence intensity and lifetime information (FIGS. 71-7F). Pixel-wise redox ratio maps are created by normalized fluorescence intensities as: FAD/(FAD+NADH). […]

Take “carbonyl cyanide m-chlorophenyl hydrazine [CCCP]”: the “bound NADH fraction (NADH fluorescence lifetime, phasor analysis)” value is “increase”; the “mitochondrial clustering (β from PSD)” value is “increased”; the “optical redox ratio FAD/(NADH+FAD)” value is listed as “elevated”.
